Reference: patent US20240180888A1, “C5AR1 INHIBITORS FOR TREATING […] REACTIONS TO TAXANES” (Dompe' Farmaceutici SPA, priority 2021, published 2024)

Tests used:
F11 hybridoma cells = assay: Real Time PCR for IL-8 mRNA expression in differentiated F11 cells; format: cell-based; settings: 20 h; 10 nM Paclitaxel or 50 nM C5a
Experimental: F11 hybridoma cells (ECACC 08062601), chosen as an alternative model of DRG neurons were cultured in DMEM medium (Euroclone, MI, Italy) supplemented with 10% FBS (Sigma-Aldrich St. Louis, CO, USA), 1% penicillin/streptomycin (Euroclone) and 1% glutamine (Euroclone) at 37° C., in a humidified 95% air-5% CO2 atmosphere. For the experiments, cells were used at 18th passage and seeded at 1×10^4 cells/cm2. After 24 h, cells were differentiated with rat NGF (rNGF) (Sigma). rNGF was dissolved in DMEM with 1% penicillin/streptomycin and 1% glutamine (FBS free) at the final concentration 50 ng/ml. The medium was replaced every 3 days until complete differentiation, which happened after 7 days. […]
For gene expression analysis, the following protocol was used: total RNA was extracted by Trizol reagent, according to the manufacturer's instructions. The total RNA concentration was determined spectrophotometrically in RNAase-free water, and 1 μg aliquots of total RNA were reverse-transcripted into cDNA using ProtoScript First Strand cDNA Synthesis Kit (NEB). […] Relative expression levels were calculated for each sample after normalization against reference gene, using the ΔΔCt method for comparing relative fold expression differences, as previously described [Livak et al., 2001 DOI: 10.1006/meth.2001.1262]. […]

[1] = target: T1, complement component 5a receptor 2 (C5AR2) (Homo sapiens, UniProt Q9P296); assay: BIAcore SPR binding to C5aR2 immobilised on sensorchip CM5 via His-tag
T1 construct: purchased CUSABIO CSB-CF868390HU
T1 sequence (Q9P296 whole entry): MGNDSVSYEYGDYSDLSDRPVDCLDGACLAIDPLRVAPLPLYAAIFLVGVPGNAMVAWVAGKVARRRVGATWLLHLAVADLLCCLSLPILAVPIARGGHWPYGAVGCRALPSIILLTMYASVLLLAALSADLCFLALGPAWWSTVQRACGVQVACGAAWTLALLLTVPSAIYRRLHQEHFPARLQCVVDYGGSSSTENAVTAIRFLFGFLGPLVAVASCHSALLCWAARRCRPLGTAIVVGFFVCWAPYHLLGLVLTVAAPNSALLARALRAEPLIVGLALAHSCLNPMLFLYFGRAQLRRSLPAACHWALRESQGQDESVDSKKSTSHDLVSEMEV
From the text: BIAcore technology was used to analyze the interaction between Paclitaxel and complement component 5a receptor 1 (C5aR1) (Example 1), complement component 5a receptor 2 (C5AR2) (Example 2) or complement component 5a (Example 3).
The BIAcore systems exploit the phenomenon of Surface Plasmon Resonance (SPR) to monitor interactions between molecules in real time. Briefly, SPR phenomenon occurs in thin conducting films at an interface between media of different refractive index. In BIAcore systems, the media are the glass of the sensorchip and the sample solution, and the conducting film is a thin layer of gold on the sensorchip surface. BIAcore monitors the interaction between two molecules, one attached to the sensor surface, called ligand, and the other one free in solution, and called analyte.
A policlonal anti-His antibody (ab137839, Abcam) was immobilized on a sensorchip CM5 (#29149604, Cytiva). In details, the antibody was diluted at a concentration of 50 μg/ml in 10 mM acetate buffer at pH 4.0, and injected over the surface of the sensorchip. Activation and deactivation of sensorchip were performed as described in Example 1a). […] Once the antibody was immobilized, the receptor was captured in an oriented way on the surface of the sensorchip. In particular, C5AR2-His (CSB-CF868390HU, CUSABIO) at a concentration of 100 μg/ml was injected onto the sensorchip with a flow rate of 5 microl/min in Running Buffer.
5 μM C5a (A144, Complement Technologies) was injected on C5AR2 surface of the sensorchip prepared in Example 2a).
Paclitaxel was injected on the C5aR2 surface of the sensorchip prepared in Example 2a) at different concentrations (10, 100 and 200 microM) in Running Buffer, and the amount of obtained RU was evaluated.

[2] = system: RAW 264.7 mouse macrophages; assay: Proteome profiler cytokine release assay in RAW 264.7 macrophages; format: cell-based; settings: 10 nM, 24 h; for proteome profile of cytokines released: murine
Experimental: RAW 264.7 (ATTC TIB-71) mouse macrophages were cultured following manufacturer's instructions using DMEM medium (Euroclone, MI, Italy) supplemented with 10% FBS (non-heat inactivated) (ATCC, USA) at 37° C., in a humidified 95% air-5% CO2 atmosphere and then were seeded at 1*10^4 cells/cm^2.
(§1) After 24 hours, cells were treated with C5a (diluted in medium) (10 nM, R&D, USA), Paclitaxel (diluted in medium) (10 nM, Sigma, USA) in the absence and in the presence of the C5a inhibitor DF3966A (10 μM), and anti C5aR Ab (BioLegend, CA, USA; 50 nM) or Avacopan (10 μM) for 24 hours, then the media was replaced with culture media (5 ml) for 24 h and then collected.
(§2) Conditioned media were centrifugated to remove particulates and assayed immediately. […] The reagents were prepared following manufacturer's protocols (R&D, USA). Briefly, the membranes were incubated with Array Buffer 6 for 1 hour on a rocking platform shaker. The samples were prepared by adding up to 1 ml of Array Buffer 4 in two separated tubes and then 15 microl of reconstituted mouse cytokine detection antibody cocktail (>40 mouse cytokines) to each prepared sample and incubated 1 hour. Then, the Array Buffer 6 was aspirated and replaced with the sample/antibody mixtures and incubated at 4° C. overnight. The following day, membranes were washed 3 times and Streptavidin-HRP (1:2000) was incubated for 30 minutes at room temperature on a rocking platform shaker. The membranes were washed again, and 1 ml of prepared Chemi Reagent mix was placed onto each membrane. Multiple exposure times were acquired using UVITEC digital analyzer (Alliance, Cambridge, UK).
(§3) The positive signals seen in the developed membranes can be identified by placing the transparency overlay template on the array image and aligning it with pairs of reference spots in the three corners of each array (see FIG. 10). […] Pixel densities (average signals of pair of duplicates which represent each cytokine) were analyzed by ImageJ and the average background was subtracted from each spot.
(§4) In details, the profiling of cytokines released (>40 cytokines) from RAW 264.7 and human macrophages challenged with paclitaxel (Sigma-Aldrich; 10 nM) or C5a (R&D Systems, Inc. MN, USA; 10 nM) for 24 h using a proteome profiler assay. […] The experimental assay is explained in example 4.
(§5) For the human macrophages, human XL Cytokine Array kit #Ary022B was used, while for murine macrophages mouse cytokine Array Panel A #Ary006 was used (R&D systems, USA).

[3] = system: human (THP-1) macrophages; assay: Proteome profiler cytokine release assay in human macrophages; format: cell-based; settings: human; 10 nM, 24 h
Experimental: as §1, §2, §3, §4, §5

Question: With `CC(=O)O[C@H]1C(=O)[C@@]2(C)[C@H]([C@H](OC(=O)c3ccccc3)[C@]3(O)C[C@H](OC(=O)[C@H](O)[C@@H](NC(=O)c4ccccc4)c4ccccc4)C(C)=C1C3(C)C)[C@]1(OC(C)=O)CO[C@@H]1C[C@@H]2O` [Paclitaxel] as the molecule, how does the “IL-8 relative mRNA expression” value (F11 hybridoma cells) read?
Answer: increase IL-8 expression levels

Question: And the “binding to immobilised C5aR2” value ([1]; 10, 100 and 200 microM in Running Buffer)?
Answer: not able to bind

Question: And the “binding to immobilised C5aR2 (legend of FIG. 8)” value ([1]; from 4.06 μM to 37.5 μM)?
Answer: not able to bind

Question: And the “levels of MCP-1, MIP-1α, MIP-1β, MIP-2 and ID Ra compared to the control group” value [2]?
Answer: significantly increased

Question: What about the “proteome profile of cytokines released” value [2] of the same molecule?
Answer: resembled that of typical anaphylaxis

Question: And the “proteome profile of cytokines released” value [3]?
Answer: resembled that of typical anaphylaxis

B1: C5a: anaphylatoxin, pro-inflammatory polypeptide, the natural ligand of the receptor C5aR1 (protein, UniProt P01031 678-751, looked up)
C5a anaphylatoxin: TLQKKIEEIAAKYKHSVVKKCCYDGACVNNDETCEQRAARISLGPRCIKAFTECCVVASQLRANISHKDMQLGR
modifications: C5a anaphylatoxin
notes: anaphylatoxin, pro-inflammatory polypeptide, the natural ligand of the receptor C5aR1
Question: With B1 as the molecule, how does the “IL-8 relative mRNA expression” value (F11 hybridoma cells) read?
Answer: increases IL-8 expression levels

Question: And the “binding to immobilised C5aR2” value ([1]; 5 μM)?
Answer: is able to bind

Question: What about the “levels of MCP-1, MIP-1α, MIP-1β, MIP-2 and ID Ra compared to the control group” value [2] of the same molecule?
Answer: significantly increased

Question: What about the “proteome profile of cytokines released” value [2] of the same molecule?
Answer: resembled that of typical anaphylaxis

Question: What about the “proteome profile of cytokines released” value [3] of the same molecule?
Answer: resembled that of typical anaphylaxis
